Results as given in ChEMBL document CHEMBL1201862, “PubChem BioAssay data set” (2004).
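Briefly, cells in 96-well plates were exposed to five compound concentrations for 48 h, and endpoints were estimated by linear interpolation. GI50 is the concentration that inhibits growth by half.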 Calls of active or inactive are those of the source. No stated cut-off is given here; in the data, active = GI50 up to about 1.1 µM and inactive = higher.

Key:
Test in all cases: DTP human tumour cell line panel, 48 h
CAKI-1 = test system: CAKI-1
M19-MEL = test system: M19-MEL
KM-20L2 = test system: KM-20L2
HT-29 = test system: HT-29
TK-10 = test system: TK-10
Malme-3M = test system: Malme-3M
RXF 631 = test system: RXF 631
SNB-19 = test system: SNB-19
NCI-H460 = test system: NCI-H460
XF498 = test system: XF498
OVCAR-3 = test system: OVCAR-3
LXFL 529 = test system: LXFL 529
OVCAR-8 = test system: OVCAR-8
HOP-92 = test system: HOP-92
SF-295 = test system: SF-295
NCI-H226 = test system: NCI-H226
NCI-H23 = test system: NCI-H23
HL-60 = test system: HL-60
EKVX = test system: EKVX
OVCAR-5 = test system: OVCAR-5
LOX IMVI = test system: LOX IMVI
DLD-1 = test system: DLD-1
HCC 2998 = test system: HCC 2998
786-0 = test system: 786-0
ACHN = test system: ACHN
A549 = test system: A549
SN12C = test system: SN12C
UO-31 = test system: UO-31
SNB-75 = test system: SNB-75
HOP-18 = test system: HOP-18
NCI-H522 = test system: NCI-H522
SW-620 = test system: SW-620
KM12 = test system: KM12
IGROV-1 = test system: IGROV-1
K562 = test system: K562
MOLT-4 = test system: MOLT-4
SK-MEL-28 = test system: SK-MEL-28
RPMI-8226 = test system: RPMI-8226
DMS-273 = test system: DMS-273
UACC-62 = test system: UACC-62
SK-MEL-5 = test system: SK-MEL-5
SF-539 = test system: SF-539
UACC-257 = test system: UACC-257
HCT-15 = test system: HCT-15
M14 = test system: M14
A498 = test system: A498
CCRF-CEM = test system: CCRF-CEM
SK-MEL-2 = test system: SK-MEL-2
U-251 = test system: U-251
OVCAR-4 = test system: OVCAR-4
SF-268 = test system: SF-268
RXF 393 = test system: RXF 393
COLO 205 = test system: COLO 205
SK-OV-3 = test system: SK-OV-3
HCT-116 = test system: HCT-116
DMS-114 = test system: DMS-114
SNB-78 = test system: SNB-78
SR = test system: SR

Structure (SMILES): COc1ccc(S(=O)(=O)N(C)CC(=O)O)cc1
- GI50 (CAKI-1): > 100 µM (inactive)
- GI50 (M19-MEL): > 100 µM (inactive)
- GI50 (KM-20L2): > 100 µM (inactive)
- GI50 (HT-29): > 100 µM (inactive)
- GI50 (TK-10): > 100 µM (inactive)
- GI50 (Malme-3M): > 100 µM (inactive)
- GI50 (RXF 631): > 100 µM (inactive)
- GI50 (SNB-19): > 100 µM (inactive)
- GI50 (NCI-H460): > 100 µM (inactive)
- GI50 (XF498): > 100 µM (inactive)
- GI50 (OVCAR-3): > 100 µM (inactive)
- GI50 (LXFL 529): > 100 µM (inactive)
- GI50 (OVCAR-8): > 100 µM (inactive)
- GI50 (HOP-92): > 100 µM (inactive)
- GI50 (SF-295): > 100 µM (inactive)
- GI50 (NCI-H226): > 100 µM (inactive)
- GI50 (NCI-H23): > 100 µM (inactive)
- GI50 (HL-60): > 100 µM (inactive)
- GI50 (EKVX): > 100 µM (inactive)
- GI50 (OVCAR-5): > 100 µM (inactive)
- GI50 (LOX IMVI): > 100 µM (inactive)
- GI50 (DLD-1): > 100 µM (inactive)
- GI50 (HCC 2998): > 100 µM (inactive)
- GI50 (786-0): > 100 µM (inactive)
- GI50 (ACHN): > 100 µM (inactive)
- GI50 (A549): > 100 µM (inactive)
- GI50 (SN12C): > 100 µM (inactive)
- GI50 (UO-31): > 100 µM (inactive)
- GI50 (SNB-75): > 100 µM (inactive)
- GI50 (HOP-18): > 100 µM (inactive)
- GI50 (NCI-H522): > 100 µM (inactive)
- GI50 (SW-620): > 100 µM (inactive)
- GI50 (KM12): > 100 µM (inactive)
- GI50 (IGROV-1): > 100 µM (inactive)
- GI50 (K562): > 100 µM (inactive)
- GI50 (MOLT-4): > 100 µM (inactive)
- GI50 (SK-MEL-28): > 100 µM (inactive)
- GI50 (RPMI-8226): > 100 µM (inactive)
- GI50 (DMS-273): > 100 µM (inactive)
- GI50 (UACC-62): > 100 µM (inactive)
- GI50 (SK-MEL-5): > 100 µM (inactive)
- GI50 (SF-539): > 100 µM (inactive)
- GI50 (UACC-257): > 100 µM (inactive)
- GI50 (HCT-15): > 100 µM
- GI50 (M14): > 100 µM (inactive)
- GI50 (A498): > 100 µM (inactive)
- GI50 (CCRF-CEM): > 100 µM (inactive)
- GI50 (SK-MEL-2): > 100 µM (inactive)
- GI50 (U-251): > 100 µM (inactive)
- GI50 (OVCAR-4): > 100 µM (inactive)
- GI50 (SF-268): > 100 µM (inactive)
- GI50 (RXF 393): > 100 µM (inactive)
- GI50 (COLO 205): > 100 µM (inactive)
- GI50 (SK-OV-3): > 100 µM (inactive)

Structure (SMILES): CC(=O)OC1(Sc2ccccc2)CC2[C@H]3COC(C)(C)O[C@H]3CC[C@@]2(C)CC1=O (stereo not given in full)
- GI50 (CAKI-1): 48.8 µM (inactive)
- GI50 (M19-MEL): 50.9 µM (inactive)
- GI50 (KM-20L2): 37.5 µM (inactive)
- GI50 (HT-29): 88.5 µM (inactive)
- GI50 (TK-10): > 100 µM (inactive)
- GI50 (Malme-3M): 99.3 µM (inactive)
- GI50 (RXF 631): 14.4 µM (inactive)
- GI50 (SNB-19): 71.9 µM (inactive)
- GI50 (NCI-H460): 64.1 µM (inactive)
- GI50 (XF498): 19.2 µM (inactive)
- GI50 (HCT-116): 65.3 µM (inactive)
- GI50 (OVCAR-3): 37.2 µM (inactive)
- GI50 (LXFL 529): 34.2 µM (inactive)
- GI50 (OVCAR-8): 74.8 µM (inactive)
- GI50 (HOP-92): 45.2 µM (inactive)
- GI50 (SF-295): 55.8 µM (inactive)
- GI50 (NCI-H226): 20.2 µM (inactive)
- GI50 (NCI-H23): 21.4 µM (inactive)
- GI50 (EKVX): 57.7 µM (inactive)
- GI50 (OVCAR-5): > 100 µM (inactive)
- GI50 (DMS-114): 27 µM (inactive)
- GI50 (DLD-1): 65.2 µM (inactive)
- GI50 (786-0): 33.7 µM (inactive)
- GI50 (ACHN): 41.5 µM (inactive)
- GI50 (A549): 43.2 µM (inactive)
- GI50 (SN12C): 23.4 µM (inactive)
- GI50 (UO-31): 19 µM (inactive)
- GI50 (SNB-75): 23.2 µM (inactive)
- GI50 (NCI-H522): 32.3 µM (inactive)
- GI50 (SW-620): 52.4 µM (inactive)
- GI50 (KM12): 43.5 µM (inactive)
- GI50 (IGROV-1): 21.3 µM (inactive)
- GI50 (K562): 30.1 µM (inactive)
- GI50 (MOLT-4): 9.95 µM (inactive)
- GI50 (SK-MEL-28): > 100 µM (inactive)
- GI50 (RPMI-8226): 21.1 µM (inactive)
- GI50 (DMS-273): 39.6 µM (inactive)
- GI50 (UACC-62): 30.1 µM (inactive)
- GI50 (SK-MEL-5): 21.3 µM (inactive)
- GI50 (SF-539): 26.1 µM (inactive)
- GI50 (UACC-257): 49.9 µM (inactive)
- GI50 (SNB-78): > 100 µM (inactive)
- GI50 (HCT-15): 34.9 µM
- GI50 (M14): 34.6 µM (inactive)
- GI50 (SK-MEL-2): 81.8 µM (inactive)
- GI50 (U-251): > 10 µM (inactive)
- GI50 (OVCAR-4): 71.6 µM (inactive)
- GI50 (RXF 393): 47.2 µM (inactive)
- GI50 (COLO 205): 26.9 µM (inactive)
- GI50 (SK-OV-3): 44.2 µM (inactive)
- GI50 (SR): 10 µM (inactive)
